Columns and labels:
Format in all cases: in vivo
[1] = system: Southern Armyworm [Spodoptera eridania (Cramer)]; test: whole plant or invertebrate; settings: for mortality at 10 ppm / mortality at 100 ppm / mortality at 1000 ppm: 48 h, read-out: % kill, Southern Armyworm 3rd Instar; for pest or weed control at 1000 µg/mL: 168 h, second leaf, 7 days from original treatment, read-out: % kill, Southern Armyworm 3rd Instar, 7 days (residual activity)
Procedure: Southern Armyworm [Spodoptera eridania ([…] bean plant with just the primary leaves expanded to 7.6 to 10 cm is dipped for 3 seconds with agitation in a 1000 ppm solution and set in a hood to dry. […] The dish is covered and held at 26.7° C. After 2 days mortality counts and estimates of the amount of feeding are made. Compounds showing partial kill and/or inhibition of feeding are held for an extra day for further observations. All compounds showing activity as defined above are retested, using the second leaf on the bean plant, after an interval of 7 days from original treatment, as an assay of residual activity. Compounds rated active (8 or 9) are further tested at reduced concentrations in 50% acetone:50% water.

[2] = system: Cabbage Looper [Trichoplusia ni (Hubner)]; test: Insecticide test, cabbage looper 3rd instar; settings: 48 h, 2 days, 26.7° C., read-out: % kill, Cabbage Looper 3rd Instar
Procedure: Cabbage Looper [Trichoplusia ni (Hubner)]
A primary leaf of a cotton plant is dipped in the test solution and agitated for 3 seconds. It is then set in a hood to dry. Following this, the leaf is placed in a 10 cm petri dish containing a moist filter paper at the bottom and 10 third-instar loopers. The dish is covered and held at 26.7° C. After 2 days, mortality counts and estimates of feeding damage are recorded. Those materials showing partial kill and/or inhibition of feeding are held for another day for further observations.
(§1) Compounds rated active (8 or 9) are further tested at reduced concentrations in 50% acetone:50% water.

[3] = system: Tobacco Budworm [Heliothis virescens (Fabricius)]; test: whole plant or invertebrate; settings: 72 h, read-out: % kill, Tobacco Budworm 3rd Instar
Procedure: Third Instar Three cotton plants with just expanded cotyledons are dipped in a 1000 ppm solution, and placed in a hood to dry. When dry, each cotyledon is cut in half and each half is placed in one of ten 29.6 ml plastic medicine cups containing a 1.25 cm dental wick saturated with water, and one third instar budworm larva is added. The cup is capped and held for 3 days at 26.7° C., after which mortality counts are made. Compounds rated active (8 or 9) are further tested at reduced concentrations in 50% acetone:50% water.

[4] = system: Tobacco Budworm [Heliothis virescens (Fabricius)]; test: Insecticide test, tobacco budworm 1st instar (eggs / newly hatched larvae on dipped cotton leaf); settings: 72 h, read-out: % kill, Tobacco Budworm 1st Instar
Procedure: Tobacco Budworm [Heliothis virescens (Fabricius)]
A cotton plant with 2 true leaves expanded is dipped for 3 seconds with agitation in a 300 ppm solution. A 1.25 to 2 cm square of cheesecloth with about 50 to 100 budworm eggs 0-24 hours old is also dipped in the test solution and placed on one leaf to dry. The leaf with the treated budworm eggs is removed from the plant and placed in a 236.6 ml (8-oz) Dixie cup with a wet 5 cm piece of dental wick and covered with a lid. The other leaf is placed in a similar cup with a wick and a piece of cheesecloth infested with 50-100 newly hatched larvae is added before covering the cup with a lid. After 3 days at 26.7° C., observations of egg hatch are made as well as kill of newly hatched larvae, any inhibition of feeding, or interference of any sort with normal development.
as §1

Compound | mortality at 10 ppm [1] [%] | mortality at 100 ppm [1] [%] | mortality at 1000 ppm [1] [%] | mortality at 10 ppm [2] [%] | mortality at 100 ppm [2] [%] | mortality at 1000 ppm [2] [%] | mortality at 100 ppm [3] [%] | mortality at 1000 ppm [3] [%] | mortality at 300 ppm [4] [%] | pest or weed control at 1000 µg/mL [1] [%] | mortality at 10 ppm [3] [%] | mortality at 100 ppm [4] [%] | mortality at 10 ppm [4] [%]
CCCCC(CC)C(=O)N1CC(C)(C)CN=C1NN=C(C=Cc1ccc(C(F)(F)F)cc1)C=Cc1ccc(C(F)(F)F)cc1 (stereo not drawn) | 0 | 100 | 100 | 80 | 90 | 100 | 40 | 100 | 0 | – | – | – | –
CC1(C)CN=C(NN=C(C=Cc2ccc(C(F)(F)F)cc2)C=Cc2ccc(C(F)(F)F)cc2)N(C(=O)c2ccccc2)C1 [drawing 35] | 0 | 100 | 100 | 0 | 100 | 100 | 100 | 100 | – | 100 | 0 | 0 to 40 | –
CC(=O)N1CC(C)(C)CN=C1N(N=C(C=Cc1ccc(C(F)(F)F)cc1)C=Cc1ccc(C(F)(F)F)cc1)C(C)=O | 0 | 100 | 100 | 41 to 60 | 86 to 95 | 100 | 0 | 100 | – | 0 | – | – | –
CC1(C)CN=C(NN=C(C=Cc2ccc(Cl)cc2)C=Cc2ccc(Cl)cc2)N(C(=O)c2ccccc2)C1 | 30 | 100 | 100 | 0 | 100 | 100 | 0 | 100 | – | 100 | – | 41 to 60 | 0 to 40
CCCCCCCCCCCCCC(=O)N1CC(C)(C)CN=C1NN=C(C=Cc1ccc(C(F)(F)F)cc1)C=Cc1ccc(C(F)(F)F)cc1 [R1=CF3, R3=n-C13 H27] | – | 0 | 100 | 0 | 60 | 100 | 90 | 100 | – | – | 0 | – | –
CCCCC(=O)N1CC(C)(C)CN=C1NN=C(C=Cc1ccc(C(F)(F)F)cc1)C=Cc1ccc(C(F)(F)F)cc1 [R1=CF3, R3=n-C4 H9] | 0 | 100 | 100 | – | 100 | 100 | 40 | 100 | 86 to 95 | 100 | – | – | –
CC(C)C(=O)N1CC(C)(C)CN=C1NN=C(C=Cc1ccc(C(F)(F)F)cc1)C=Cc1ccc(C(F)(F)F)cc1 [R1=CF3, R3=(CH3)2 CH] | 0 | 100 | 100 | 0 | 100 | 100 | 50 | 100 | 86 to 95 | – | 0 | – | –
CCCCCC(=O)N1CC(C)(C)CN=C1NN=C(C=Cc1ccc(C(F)(F)F)cc1)C=Cc1ccc(C(F)(F)F)cc1 [R1=CF3, R3=n-C5 H11] | 0 | 100 | 100 | 0 | 50 | 100 | 70 | 100 | – | – | 0 | – | –
CCCCCCCCCCCCCCCC(=O)N1CC(C)(C)CN=C1NN=C(C=Cc1ccc(Cl)cc1)C=Cc1ccc(Cl)cc1 [R1=Cl, R3=n-C15 H31] | – | 0 | 100 | – | 0 | 100 | 0 | 100 | – | 100 | – | – | –
CCCCCCCCC=CCCCCCCCC(=O)N1CC(C)(C)CN=C1NN=C(C=Cc1ccc(C(F)(F)F)cc1)C=Cc1ccc(C(F)(F)F)cc1 [R1=CF3, R3=n-C8 H17CHCH(CH2)7] | 20 | 100 | 100 | 0 | 100 | 100 | 100 | 100 | – | 100 | 0 | 100 | 0 to 40
CC1(C)CN=C(NN=C(C=Cc2ccc(C(F)(F)F)cc2)C=Cc2ccc(C(F)(F)F)cc2)N(C(=O)C=Cc2ccccc2)C1 | – | – | 0 | – | – | – | – | – | 0 | – | – | – | –
CCCCCCCCCCCCCCCC(=O)N1CCCCN=C1NN=C(C=Cc1ccc(C(F)(F)F)cc1)C=Cc1ccc(C(F)(F)F)cc1 | – | – | – | – | – | – | – | – | 0 to 40 | – | – | – | –
CC(=O)N1CC(C)(C)CN=C1NN=C(C=Cc1ccc(C(F)(F)F)cc1)C=Cc1ccc(C(F)(F)F)cc1 [R1=CF3, R3=CH3, 1,5-bis(α,α,α-Trifluoro-p-tolyl)-1,4-pentadien-3-one, (1-acetyl-1,4,5,6-tetrahydro-5,5-dimethyl-2-pyrimidinyl)hydrazone] | 0 | 100 | 100 | 41 to 60 | 86 to 95 | 100 | 100 | 100 | 86 to 95 | 100 | 40 | 0 to 40 | –
CC1(C)CN=C(NN=C(C=Cc2ccc(C(F)(F)F)cc2)C=Cc2ccc(C(F)(F)F)cc2)N(C(=O)c2ccc(C(C)(C)C)cc2)C1 | 0 | 90 | 100 | 0 | 100 | 100 | 100 | 100 | 86 to 95 | 0 | 0 | 0 to 40 | 0 to 40
CCCCCCCC(=O)N1CC(C)(C)CN=C1NN=C(C=Cc1ccc(C(F)(F)F)cc1)C=Cc1ccc(C(F)(F)F)cc1 [R1=CF3, R3=n-C7 H15] | 0 | 90 | 100 | – | 90 | 100 | 0 | 100 | – | – | – | – | –
CCCCCCCCCCCC(=O)N1CC(C)(C)CN=C1NN=C(C=Cc1ccc(C(F)(F)F)cc1)C=Cc1ccc(C(F)(F)F)cc1 [R1=CF3, R3=n-C11 H23] | 0 | 100 | 100 | 0 | 70 | 100 | 70 | 100 | – | – | 0 | – | –
CC(C)=CC(=O)N1CC(C)(C)CN=C1NN=C(C=Cc1ccc(C(F)(F)F)cc1)C=Cc1ccc(C(F)(F)F)cc1 [R1=CF3, R3=(CH3)2 CCH] | – | 0 | 100 | – | 10 | 100 | 0 | 100 | – | 0 | – | – | –
CCCCCCCC(=O)N1CCCCN=C1NN=C(C=Cc1ccc(C(F)(F)F)cc1)C=Cc1ccc(C(F)(F)F)cc1 | – | – | – | – | – | – | – | – | 0 to 40 | – | – | – | –
CCCCCCCCCC(=O)N1CC(C)(C)CN=C1NN=C(C=Cc1ccc(C(F)(F)F)cc1)C=Cc1ccc(C(F)(F)F)cc1 [R1=CF3, R3=n-C9 H19] | – | 0 | 100 | 0 | 60 | 100 | 100 | 100 | – | – | 0 | – | –
O=C(c1ccccc1)N1CCCCN=C1NN=C(C=Cc1ccc(C(F)(F)F)cc1)C=Cc1ccc(C(F)(F)F)cc1 | – | – | – | – | – | – | – | – | 0 to 40 | – | – | – | –
